l = locked nucleic acid (LNA); d = 2'-deoxy (DNA)
Legend:
A549 cells = test: Intracellular ATP assay, A549 cells transfected with oligonucleotide; format: cell-based, human; conditions: A549, 48 hours after transfection;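 also: ATP as percent of saline control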
Experimental: A549 cells (ATCC CCL-185) were cultivated according to the manufacturer's instructions in A549 medium [F-12K Nut Mix (Gibco, 21127-022), 1% penicillin/streptomycin (Gibco: 15140-122), 10% FBS (Gibco 16000-044)].
Prior to treatment with oligonucleotides the A549 cells were seeded in 96 well plates at 3′000 cells per well in A549 regular medium and grown until 60% confluence. […]
Each sample was tested in triplicate.
A549 were cultivated as described in the “Materials and methods” section. At after at 50-60% confluence the oligonucleotides were transfected into the cells using 0.5 μl Lipofectamin (Invitrogen, 11668-019) in 25 μl OptiMEM® (GIBCO 31985062) and 1 ng or 10 ng oligonucleotide in the same volume OptiMEM. The cells were incubated over night at 37° C. The medium was changed using A459 regular medium+10 ng/ml EGF. 48 hours after transfection the medium was collected for EGF measurements and the cells were harvested for ATP measurements.

[1] = system: Human primary proximal tubule epithelial cells (PTEC); test: EGF assay, supernatant of primary PTEC cells
Experimental: Prior to treatment with oligonucleotides the primary PTEC cells were seeded into collagen I-coated 96-well plates (Corning, 356407) at a density of 40 000 and 20 000 cells/well respectively in PTEC medium and grown until confluence.
Oligonucleotides were dissolved in PBS and added to the cell culture at the given concentration, such as 10, 30 or 100 μM. The total volume of each well was 100 μl. PBS served as vehicle control.
When extra cellular markers, like EGF and KIM-1, were analyzed following the oligonucleotide treatment the medium was collected and stored at −20° C. until further analysis. […] The collected medium was stored at −20° C.
For analysis of human EGF, cell supernatants were thawed on ice, diluted 1:2 and 1:10 in sample dilution buffer (BioRad catalog # M60-009RDPD) and analyzed by Luminex®-based ELISA using human EGF beads (Bio-Plex Pro™ Human Cancer Biomarker Panel 2 EGF Set#171BC603M), or followed by analysis using the Bio-Plex® 200 Systems (BioRad) according to the manufacturer's instructions. Data are reported as mean concentrations and standard deviations of triplicate wells. An increase of EGF levels above 200% was considered as predictive for nephrotoxicity.

| Substance | ATP (A549 cells; 1 ng oligonucleotide) [% saline] | ATP (A549 cells; 10 ng oligonucleotide) [% saline] | EGF ([1]; Day 3, 3 μM) [% saline] | EGF ([1]; Day 3, 10 μM) [% saline] | EGF ([1]; Day 3, 30 μM) [% saline] | EGF ([1]; Day 3, 100 μM) [% saline] | EGF ([1]; Day 6, 3 μM) [% saline] | EGF ([1]; Day 6, 10 μM) [% saline] | EGF ([1]; Day 6, 30 μM) [% saline] | EGF ([1]; Day 6, 100 μM) [% saline] |
| --- | --- | --- | --- | --- | --- | --- | --- | --- | --- | --- |
| GCtgtgtgagcttGG (antisense GCTGTGTGAGCTTGG; sugars from the 5' end l2 d11 l2, backbone and methylation of C not given here) [Compound 4-1] | 93 | 51 | 198 | 323 | 373 | 631 | 525 | 1171 | 1588 | 1403 |
| TGCtacaaaacCCA (antisense TGCTACAAAACCCA; sugars from the 5' end l3 d8 l3, backbone and methylation of C not given here) [Compound 3-1] | 91 | 44 | 114 | 139 | 134 | 269 | 152 | 286 | 653 | 915 |
